Values joined by “and” are separate entries in the source; they are usually repeats but may differ in a detail not shown here. Equal values may be shown once.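 Briefly, cells in 96-well plates were exposed to five compound concentrations for 48 h, and endpoints were estimated by linear interpolation. GI50 is the concentration that inhibits growth by half. Definition used: TGI = concentration required for complete inhibition of growth.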
Assays:
Assay in all cases: NCI anticancer screen, dose series, 48 h
HT29 colon = test system: HT29 colon
SNB-19 CNS = test system: SNB-19 CNS
IGROV1 ovarian = test system: IGROV1 ovarian
PC-3 prostate = test system: PC-3 prostate
MDA-N = test system: MDA-N
NCI-H226 lung = test system: NCI-H226 lung
CCRF-CEM leukemia = test system: CCRF-CEM leukemia
SN12C renal = test system: SN12C renal
DU-145 prostate = test system: DU-145 prostate
HCC-2998 colon = test system: HCC-2998 colon
HOP-92 NSCLC = test system: HOP-92 NSCLC

| SMILES | TGI (HT29 colon) [µM] | TGI (SNB-19 CNS) [µM] | TGI (IGROV1 ovarian) [µM] | TGI (PC-3 prostate) [µM] | TGI (MDA-N) [µM] | TGI (NCI-H226 lung) [µM] | TGI (CCRF-CEM leukemia) [µM] | TGI (SN12C renal) [µM] | TGI (DU-145 prostate) [µM] | TGI (HCC-2998 colon) | TGI (HOP-92 NSCLC) [µM] | GI50 (SNB-19 CNS) [µM] | GI50 (HOP-92 NSCLC) [µM] | GI50 (NCI-H226 lung) [µM] | GI50 (CCRF-CEM leukemia) [µM] | GI50 (DU-145 prostate) [µM] | GI50 (IGROV1 ovarian) [µM] | GI50 (HCC-2998 colon) [µM] | GI50 (SN12C renal) [µM] | GI50 (PC-3 prostate) [µM] |
| --- | --- | --- | --- | --- | --- | --- | --- | --- | --- | --- | --- | --- | --- | --- | --- | --- | --- | --- | --- | --- |
| CC(=O)Oc1ccc2c(C)cc(=O)oc2c1OC(C)=O | > 100 | > 100 | 92.9 | > 100 | > 100 | > 100 | 83.7 | > 100 | > 100 | – | – | – | – | – | – | – | – | – | – | – |
| O=c1c(/C=C/c2c(O)ccc3ccccc23)nnc2sc(-c3cccc(Br)c3)nn12 | 82.1 | > 100 | 15.8 | > 100 | > 100 | – | 18.6 | – | 45.3 | 89 µM | – | – | – | – | – | – | – | – | – | – |
| CN(C)CCC(=O)c1ccccc1 | > 67.3 | > 100 | > 71 | – | – | 98.4 | 62.4 | > 70.1 | – | > 69.6 µM | 44.6 | – | – | – | – | – | – | – | – | – |
| S=C(S)NCNC(=S)S.[Zn+2] | > 100 | > 100 | > 100 | > 100 | > 100 | – | > 100 | > 100 | > 100 | > 100 µM | > 100 | – | – | – | – | – | – | – | – | – |
| CN(C)C1(N(C)C)Oc2c(c(=O)n(C)c(=O)n2C)C(c2ccccc2)C1(F)F (stereo not drawn) | – | > 100 | – | > 100 | – | > 100 | > 100 | – | > 100 | > 100 µM | > 100 | – | – | – | – | – | – | – | – | – |
| C=C(C)[C@@H]1CC[C@]2(C(=O)NC3CCCCC3)CC[C@]3(C)[C@H](CC[C@@H]4[C@@]5(C)CCCNC(C)(C)[C@@H]5CC[C@]43C)[C@@H]12 | – | 33.3 | – | – | – | 36.2 | 6.68 | – | 3.63 | – | 3.15 | 5.51 | 1.55 | 4.83 | 2.3 | 1.91 | – | – | – | – |
| N#Cc1c(N)n(-c2cccc(C(=O)O)c2)c(=O)c2cc([N+](=O)[O-])ccc12 | > 100 | > 100 | – | > 100 | > 100 | > 100 | – | > 100 | > 100 | > 100 µM | > 100 | – | – | – | – | – | – | – | – | – |
| O=c1cc(-c2cccc3ccccc23)[nH]c2ncccc12 | 0.0608 | > 100 | > 100 | > 100 | – | > 100 | > 100 | > 100 | > 100 | 0.424 µM and 1.54 µM | 70.1 | 0.0366 | 0.773 | – | 0.0201 | – | 0.0417 | 0.0313 | 0.149 | – |
| COC(=O)c1cc2ccc(N)nc2[nH]c1=O | – | > 100 | > 100 | > 100 | > 100 | > 100 | – | > 100 | – | > 100 µM | > 100 | – | – | – | – | – | – | – | – | – |
| O=C(Cn1c[n+](CC(=O)c2ccc(-c3ccccc3)cc2)c2ccccc21)Nc1cccc2cccnc12 | – | – | – | 2.29 | – | 7.33 | – | – | 5.71 | 2.74 µM | 2.18 | – | 0.677 | 2.02 | – | 2.22 | – | 1.4 | – | 1.03 |
| C[C@H](CCC(=O)O)[C@H]1CC[C@H]2[C@@H]3CC[C@@H]4C[C@H](O)CC[C@]4(C)[C@H]3C[C@H](O)[C@]12C | > 100 | > 100 | 86.7 | > 100 | > 100 | > 100 | 63.8 | > 100 | > 100 | > 100 µM | – | – | – | – | – | – | – | – | – | – |
| NNC(=O)c1n[nH]nc1C(=O)NN | 26.3 | > 100 | – | > 100 | > 100 | – | > 100 | > 100 | > 100 | > 100 µM | – | – | – | – | – | – | – | – | – | – |
| O=C1/C(=C/c2ccccc2S)N=C(c2ccccc2)N1c1nc2c(Cl)cc(Cl)cc2s1 | 40.1 | 84.5 | 67.2 | 51.6 | 36.9 | – | 13.7 | 44.2 | > 100 | 54.7 µM | 49.6 | – | – | – | – | – | – | – | – | – |
| COc1cc(C2c3cc4c(cc3OC3(OC)COC(=O)C23)OCO4)cc(OC)c1OC(C)=O (stereo not drawn) | > 37.5 | > 100 | > 100 | > 36.1 | 2.55 | – | > 100 | > 100 | > 100 | 14.3 µM | > 100 | – | – | – | – | – | – | – | – | – |
| O=C(/C=C/c1cc2ccccc2o1)N1CCN(c2ccccn2)CC1 | > 100 | > 100 | > 100 | > 100 | > 100 | – | > 100 | > 100 | > 100 | > 100 µM | > 100 | – | – | – | – | – | – | – | – | – |
| CCOC(=O)C12OC(CCC1=O)C(C(=O)OC)=C2C(=O)OC (stereo not drawn) | > 10 | > 10 | > 10 | > 10 | > 10 | > 10 | > 10 | > 10 | > 10 | > 10 µM | – | – | – | – | – | – | – | – | – | – |
| CC(=O)c1c(C)n([O-])c2cc(Cl)c(Cl)cc2[n+]1=O | 90.9 | > 100 | 24.4 | > 100 | > 100 | – | 61.5 | 86.2 | > 100 | 57.8 µM | – | – | – | – | – | – | – | – | – | – |
| Nc1nc(N)c2c3c(cnc2n1)CC(c1ccccc1)CC3 (stereo not drawn) | 66.2 | 46.8 | 21.7 | > 100 | > 100 | > 100 | – | 53.3 | > 100 | > 100 µM | – | – | – | – | – | – | – | – | – | – |
| COC(=O)C1=C(C(=O)NNc2ccccc2)N(c2cccnc2Cl)C(c2ccccc2)=CC1c1ccccc1 (stereo not drawn) | > 100 | > 100 | > 100 | > 100 | 45.6 | > 100 | > 100 | > 100 | > 100 | > 100 µM | – | – | – | – | – | – | – | – | – | – |
| COc1ccc(C(OCC2OC(n3cc(C)c(=O)[nH]c3=O)CC2n2cc(Cn3cc(Cl)c(=O)[nH]c3=O)nn2)(c2ccccc2)c2ccccc2)cc1 (stereo not drawn) | > 100 | > 100 | > 100 | > 100 | > 100 | > 100 | – | > 100 | > 100 | > 100 µM | > 100 | – | – | – | – | – | – | – | – | – |
| CC(OC(C)(C)C)[C@H](NC(=O)OCC(Cl)(Cl)Cl)C(=O)O (stereo partly drawn) | > 100 | > 100 | > 100 | – | – | – | > 100 | > 100 | – | > 100 µM | > 100 | – | – | – | – | – | – | – | – | – |
| Cc1[nH]nc(C(F)(F)F)c1N=NN1CCOCC1 | 16.8 | 30.4 | 22.6 | 24.8 | – | 30.4 | 10.8 | 30.8 | 13.4 | 6.11 µM | 8.32 | – | – | – | – | – | – | – | – | – |

Source: PubChem BioAssay (NCI)
